In this assay the target is T1, human calcitonin receptor (hCTR) (Homo sapiens, UniProt P30988).
T1 construct: host or cells: BHK (Baby Hamster Kidney), Hollex-1 cell line
T1 sequence (P30988 25-474): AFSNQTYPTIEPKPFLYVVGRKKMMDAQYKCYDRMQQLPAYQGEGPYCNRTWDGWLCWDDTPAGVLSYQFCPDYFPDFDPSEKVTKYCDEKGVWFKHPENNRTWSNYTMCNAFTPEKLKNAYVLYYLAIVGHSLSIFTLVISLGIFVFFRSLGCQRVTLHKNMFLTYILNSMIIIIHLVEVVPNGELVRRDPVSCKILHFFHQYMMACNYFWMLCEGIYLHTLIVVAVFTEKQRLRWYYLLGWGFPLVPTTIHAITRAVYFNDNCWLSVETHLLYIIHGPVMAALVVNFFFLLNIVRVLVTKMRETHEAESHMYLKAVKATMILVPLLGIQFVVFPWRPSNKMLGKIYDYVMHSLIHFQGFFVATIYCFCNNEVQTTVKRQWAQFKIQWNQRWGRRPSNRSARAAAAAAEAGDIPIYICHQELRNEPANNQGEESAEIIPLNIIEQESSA
Nature of the assay: Human calcitonin receptor (hCTR) in vitro potency assay, CRE-luciferase reporter in BHK cells. Type of assay: cell-based. The note with it: BHK hCTR/CRE-Luc cells, 3 hours incubation, assay buffer with 1% ovalbumin; read-out: hCalcR potency, EC50. In short, it runs like this: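 Luciferase signal from a CRE reporter served as the cAMP read-out after 3 h, 37 °C exposure to compound. Cells were stably transfected BHK expressing hCTR, and the buffer was phenol-red-free DMEM with 10 mM HEPES and 1% ovalbumin. Compounds were tested as 7-point, 7-fold dilutions, often from about 10 nM.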

Starred links: 1 amine or outer side, 2 acyl side, 3 side chain; linkers in the order of their positions; H or OH if unused. Residues, ends and D or L forms follow the SMILES beside them. *: point of attachment. C18 diacid = O=C(O)CCCCCCCCCCCCCCCCC(=O)*; γGlu = O=C(O)[C@H](CCC(=O)[*:2])N[*:1]

As usually defined, the EC50 is the concentration needed to bring the measured effect to its halfway point.

Take `CC[C@H](C)[C@H](NC(=O)[C@@H]1CCCN1C(=O)CNC(=O)[C@H](Cc1ccccc1)NC(=O)[C@H](Cc1c[nH]cn1)NC(=O)[C@H](Cc1c[nH]cn1)NC(=O)[C@H](CC(C)C)NC(=O)[C@H](Cc1ccccc1)NC(=O)[C@H](CCC(=O)O)NC(=O)[C@H](C)NC(=O)[C@H](CC(C)C)NC(=O)[C@H](CCCNC(=N)N)NC(=O)[C@H](C)NC(=O)[C@@H](NC(=O)[C@H](CCC(N)=O)NC(=O)[C@H](C)NC(=O)[C@@H](NC(=O)[C@H](CO)NC(=O)[C@H](CC(C)C)NC(=O)[C@H](Cc1c[nH]cn1)NC(=O)[C@H](CO)NC(=O)[C@H](C)NC(=O)CC[C@H](NC(=O)CC[C@H](NC(=O)CCCCCCCCCCCCCCCCC(=O)O)C(=O)O)C(=O)O)[C@@H](C)O)[C@@H](C)O)C(=O)N[C@@H](CC(C)C)C(=O)N1CCC[C@H]1C(=O)N1CCC[C@H]1C(=O)N[C@H](C(=O)N[C@@H](CC(=O)O)C(=O)N[C@H](C(=O)NCC(=O)N[C@@H](CO)C(=O)N[C@@H](CCC(=O)O)C(=O)N[C@H](C(=O)N1CCC[C@H]1C(N)=O)[C@@H](C)O)C(C)C)[C@@H](C)O` [Compound 17, N^1-[(4S)-4-carboxy-4-[[(4S)-4-carboxy-4-(17-carboxyheptadecanoylamino)butanoyl]amino]butanoyl]-[Ala1,Ser2,His3,Leu4,Ser5,Ala7,Gln8,Ala10,Glu14,His17,Pro25,Pro28,Pro29,Asp31,Glu35,Pro37],des-(19-22)-human amylin] ({C18 diacid-γGlu-γGlu}-ASHLSTAQTARLAEFLHHFGPILPPTDVGSETP-NH2): the 50% effective concentration (EC50) is 1.15 pM.
Regarding `CC[C@H](C)[C@H](NC(=O)[C@@H]1CCCN1C(=O)CNC(=O)[C@H](Cc1ccccc1)NC(=O)[C@H](CC(N)=O)NC(=O)[C@H](CC(=O)O)NC(=O)[C@H](CO)NC(=O)[C@H](CO)NC(=O)[C@H](Cc1c[nH]cn1)NC(=O)[C@H](Cc1c[nH]cn1)NC(=O)[C@H](CC(C)C)NC(=O)[C@H](Cc1ccccc1)NC(=O)[C@H](CCC(=O)O)NC(=O)[C@H](C)NC(=O)[C@H](CC(C)C)NC(=O)[C@H](CCCNC(=N)N)NC(=O)[C@H](C)NC(=O)[C@@H](NC(=O)[C@H](CCC(N)=O)NC(=O)[C@H](C)NC(=O)[C@@H](NC(=O)[C@H](CO)NC(=O)[C@H](CC(C)C)NC(=O)[C@H](CCC(N)=O)NC(=O)[C@H](CO)NC(=O)[C@H](C)NC(=O)CC[C@H](NC(=O)CCCCCCCCCCCCCCCCC(=O)O)C(=O)O)[C@@H](C)O)[C@@H](C)O)C(=O)N[C@@H](CC(C)C)C(=O)N1CCC[C@H]1C(=O)N1CCC[C@H]1C(=O)N[C@H](C(=O)N[C@@H](CC(=O)O)C(=O)N[C@H](C(=O)NCC(=O)N[C@@H](CO)C(=O)N[C@@H](CC(N)=O)C(=O)N[C@H](C(=O)N1CCC[C@H]1C(N)=O)[C@@H](C)O)C(C)C)[C@@H](C)O` [Compound 22, N^1-[(4S)-4-carboxy-4-(17-carboxyheptadecanoylamino)butanoyl]-[Ala1,Ser2,Gln3,Leu4,Ser5,Ala7,Gln8,Ala10,Glu14,His17,Asp21,Pro25,Pro28,Pro29,Asp31,Pro37]-human amylin] ({C18 diacid-γGlu}-ASQLSTAQTARLAEFLHHSSDNFGPILPPTDVGSNTP-NH2), the concentration for a half-maximal effect (EC50) is 1.86 pM.
Under `CC[C@H](C)[C@H](NC(=O)[C@H](C)NC(=O)CNC(=O)[C@H](Cc1ccccc1)NC(=O)[C@@H]1CCCN1C(=O)[C@H](CC(=O)O)NC(=O)[C@H](CO)NC(=O)[C@H](CO)NC(=O)[C@H](Cc1c[nH]cn1)NC(=O)[C@H](Cc1c[nH]cn1)NC(=O)[C@H](CC(C)C)NC(=O)[C@H](Cc1ccccc1)NC(=O)[C@H](CCC(=O)O)NC(=O)[C@H](C)NC(=O)[C@H](CC(C)C)NC(=O)[C@H](CCCNC(=N)N)NC(=O)[C@H](CCC(N)=O)NC(=O)[C@@H](NC(=O)[C@H](CCC(N)=O)NC(=O)[C@H](C)NC(=O)[C@@H](NC(=O)[C@H](CO)NC(=O)[C@H](CC(C)C)NC(=O)[C@H](CCC(N)=O)NC(=O)[C@H](CO)NC(=O)[C@H](C)NC(=O)CC[C@H](NC(=O)CCCCCCCCCCCCCCCCC(=O)O)C(=O)O)[C@@H](C)O)[C@@H](C)O)C(=O)N1CCC[C@H]1C(=O)N[C@@H](CO)C(=O)N[C@@H](CO)C(=O)N[C@H](C(=O)N[C@@H](CC(=O)O)C(=O)N[C@H](C(=O)NCC(=O)N1CCC[C@H]1C(=O)N[C@@H](CC(=O)O)C(=O)N[C@H](C(=O)N1CCC[C@H]1C(N)=O)[C@@H](C)O)C(C)C)[C@@H](C)O` [Compound 24] ({C18 diacid-γGlu}-ASQLSTAQTQRLAEFLHHSSDPFGAIPSSTDVGPDTP-NH2) stands 1.56 pM; under `CC[C@H](C)[C@H](NC(=O)[C@H](C)NC(=O)CNC(=O)[C@H](Cc1ccccc1)NC(=O)[C@@H]1CCCN1C(=O)[C@H](CC(=O)O)NC(=O)[C@H](CO)NC(=O)[C@H](CO)NC(=O)[C@H](Cc1c[nH]cn1)NC(=O)[C@H](Cc1c[nH]cn1)NC(=O)[C@H](CC(C)C)NC(=O)[C@H](Cc1ccccc1)NC(=O)[C@H](CCC(=O)O)NC(=O)[C@H](C)NC(=O)[C@H](CC(C)C)NC(=O)[C@H](CCCNC(=N)N)NC(=O)[C@H](C)NC(=O)[C@@H](NC(=O)[C@H](CCC(N)=O)NC(=O)[C@H](C)NC(=O)[C@@H](NC(=O)[C@H](CO)NC(=O)[C@H](CC(C)C)NC(=O)[C@H](Cc1c[nH]cn1)NC(=O)[C@H](CO)NC(=O)[C@H](C)NC(=O)CC[C@H](NC(=O)CCCCCCCCCCCCCCCCC(=O)O)C(=O)O)[C@@H](C)O)[C@@H](C)O)C(=O)N1CCC[C@H]1C(=O)N[C@@H](CO)C(=O)N[C@@H](CO)C(=O)N[C@H](C(=O)N[C@@H](CC(=O)O)C(=O)N[C@H](C(=O)NCC(=O)N1CCC[C@H]1C(=O)N[C@@H](CC(=O)O)C(=O)N[C@H](C(=O)N1CCC[C@H]1C(N)=O)[C@@H](C)O)C(C)C)[C@@H](C)O` [Compound 25, N^1-[(4S)-4-carboxy-4-(17-carboxyheptadecanoylamino)butanoyl]-[Ala1,Ser2,His3,Leu4,Ser5,Ala7,Gln8,Ala10,Glu14,His17,Asp21,Pro22,Pro27,Asp31,Pro34,Asp35,Pro37]-human amylin] ({C18 diacid-γGlu}-ASHLSTAQTARLAEFLHHSSDPFGAIPSSTDVGPDTP-NH2), 1.5 pM.

These data come from patent publication US12116388B2, “Amylin receptor agonists” (Novo Nordisk A/S, priority 2022, dated 2024).
